Assay results from patent US20160157479A1, “ANTIFUNGAL COMPOSITION AND METHOD” (OMEX INTERNATIONAL LIMITED, priority 2013, published 2016).

What was measured:
[1] = Light-fastness study (Oxynex ST photostabiliser); assay type: physicochemical; settings: 0.1% vanillin, light box 5000 lux
Method: A composition without any photostabiliser was used as a base composition (no photostabiliser).
Method: Each formulation was diluted with water to 0.1% vanillin (as pure) and 5 mL was applied by pipette to a glass petri dish. The dishes were left to stand in a light box fitted with 2×40 W fluorescent daylight bulbs with an illumination intensity of 5000 lux. The dishes were extracted with methanol and made up to 25 mL in a volumetric flask after 3 and 5 days. Samples were then analysed by HPLC.

[2] = Light-fastness study, addition of ascorbic acid; assay type: physicochemical; settings: 0.1% vanillin, 1500 Lux 5 hours per day
Method: The formulations used for these experiments are described in TABLE 10. Oxynex ST (5%) and Oxynex ST (5%) with ascorbic acid (1%) were added to the composition to determine the effect on photostability.
(§1) Method: Formulations were diluted with water to 0.1% vanillin and 5 mL transferred by pipette to a 100 mL crystallising dish. All dishes were placed in a light box containing two 60 cm high efficiency 24 W fluorescent bulbs housed in a canopy to provide bright, full spectrum lighting closely resembling daylight (6400 Kelvin). The dishes were covered with muslin sheets to reduce the intensity of the light to 1500 Lux on a programme of 5 hours per day. At specific time intervals the dishes were extracted and made up to volume with methanol. Samples were analysed by HPLC.

[3] = Light-fastness study, ratio of Oxynex ST:ascorbic acid; assay type: physicochemical; settings: 0.1% vanillin, 1500 Lux 5 hours per day
Method: The formulations used for these experiments are described in TABLE 12. Various ratios of Oxynex ST and ascorbic acid were used in the composition to determine the effect on photostability.
as §1

Photodecomposition study = assay type: physicochemical; settings: 0.1% vanillin
Method: The following samples were prepared by diluting down the specified composition with water: • VS, vanillin solution in water @ 0.1% vanillin; • 0.4% dilution of RBEF-024 (0.1% vanillin); and • 0.4% dilution of RBEF-030 (0.1% vanillin). • 5 ml of the diluted material was pipetted into 3 pyrex crystallisation dishes; the surface was covered with muslin and the samples placed in a light box for 1, 3 and 5 days respectively with high intensity white light applied for 5 hours out of every 24 hours.
As a control, three equivalent samples were placed in crystallisation dishes which were placed in the dark (inside a cupboard).
At the end of each time period the contents of the crystallisation dishes were washed out with 4×5 mL methanol (magnetic stirrer used at each addition to dissolve any solid vanillin) and the washings transferred to a 25 mL volumetric flask and made up to volume with methanol.
As an initial control (t=0 days), 5 mL of each dilution was pipetted into a 25 mL volumetric flask and made up to volume with methanol.

cabbage leaf discs = test: Effect of composition on leaf-penetration; settings: 0.1% vanillin
Method: 14.5 cm cabbage leaf discs were cut and placed in a petri dish and treated with a diluted composition. At the same time a second petri dish (control) was treated with the same diluted composition with no leaf present and stored in the dark for the duration of the test.
Test time periods were 1, 2, 4, 6 & 24 hours after application. The application was performed using an artist's air brush at low pressure to give a deposit of circa 2 g of spray diluted composition.
At the appropriate time period, the leaf disc was washed with methanol and the washings collected and made up to 25 mL with methanol. The appropriate control petri dish was also washed with methanol and the volume made up to 25 mL.
For each treatment a spray control was prepared by diluting 5 mL of spray liquid to 50 mL in a volumetric flask with methanol. The spray control is applied to the leaf and is used to determine the amount of vanillin applied to the leaf surface for each test.
The amount of vanillin washed from the leaf surface was subtracted from the amount washed from the petri dish control to determine how much of the vanillin has moved into the leaf sub-surface layer as a function of the formulation.

SMILES: COc1cc(C=O)ccc1O [0.1% Vanillin Technical in water, 4-Hydroxy-3-methoxybenzaldehyde]
- Loss (%) ([1]; 3 days): 6.18%
- Vanillin ([1]; 3 days): 177.65 mg/L
- Loss (%) ([1]; 5 days): 8.49%
- Concentration (mg/dish) ([2]; 0 days): 5.87 mg/dish
- Loss (%) ([2]; 0 days): 0.00%
- Concentration (mg/dish) ([2]; 1 day): 5.85 mg/dish
- Loss (%) ([2]; 1 day): 0.34%
- Loss (%) ([2]; 3 days): 3.92%
- Concentration (mg/dish) ([2]; 7 days): 5.53 mg/dish
- Loss (%) ([2]; 7 days): 5.79%
- Concentration (mg/dish) ([2]; 14 days): 5.22 mg/dish
- Vanillin (mg/L) 2 ([3]; 0 days): 200.48 mg/L
- Vanillin mg/dish ([3]; 0 days): 5.02 mg/dish
- Loss (%) ([3]; 1 day): −1.19%
- Vanillin mg/dish ([3]; 1 day): 4.96 mg/dish
- Loss (%) ([3]; 2 days): −0.11%
- Vanillin mg/dish ([3]; 2 days): 4.96 mg/dish
- Loss (%) ([3]; 3 days): −1.17%
- Vanillin mg/dish ([3]; 3 days): 4.90 mg/dish
- % Vanillin lost by photo-decomposition (Photodecomposition study; 0 days): 0.0%
- % Vanillin lost by photo-decomposition (Photodecomposition study; light box 5 of 24 hours, 1 day): +0.08%
- % Vanillin lost by photo-decomposition (Photodecomposition study; light box 5 of 24 hours, 3 day): +1.50%
- % Vanillin lost by photo-decomposition (Photodecomposition study; light box 5 of 24 hours, 5 day): +2.08%
- % Vanillin penetrating through leaf cuticle surface (cabbage leaf discs; 1 hour after application): 0.4%
- % Vanillin penetrating through leaf cuticle surface (cabbage leaf discs; 2 hour after application): 2.5%
- % Vanillin penetrating through leaf cuticle surface (cabbage leaf discs; 4 hour after application): 1.7%
- % Vanillin penetrating through leaf cuticle surface (cabbage leaf discs; 6 hour after application): 5.0%
- % Vanillin penetrating through leaf cuticle surface (cabbage leaf discs; 24 hour after application): 8.5%
